# Measurements from patent US5143938A, “Propanamines, their pharmacological properties and their application for therapeutic in particular antidiarrheal, purposes” (Jouveinal S.A., priority 1990, dated 1992).
# How the values were obtained:
# [1] = Antidiarrheal activity in rats: inhibition of castor oil-induced diarrhea; type: in vivo
# Procedure: This test is performed by studying the activity of the test compounds with respect to the diarrheaphenomenon caused in animals by the administration of castor oil.
# The method consists in administering the test product in solution orally, one hour before the administration, also oral, of 1.0 ml of castor oil per animal.
# The animals are then observed, and the number of rats which emit liquid stools is determined on an all-or-nothing basis every hour during the seven hours following administration of the diarrheal agent.
# [2] = Activity with respect to gastrointestinal transit in rats (semi-solid charcoal meal); type: in vivo; settings: for effect on intestinal transit, in words / Activity with respect to intestinal transit, percentage change relative to the controls: 30 mg/kg oral; for Activity with respect to intestinal transit, percentage change relative to the controls: one hour before meal, positive = accelerated, negative = slowed down
# Procedure: The test is carried out according to the technique described by Green A. F., J. Pharmacol., 1959, 14, 26-34. It consists in determining in rats the distance travelled in the animal's intestine by a semi-solid meal after a specified time.
# The test products are administered orally one hour before gavage of the animal with a semi-solid meal containing vegetable charcoal as a tracer. 15 minutes after the administration, the animal is sacrificed and the distance travelled in the intestine by the meal is expressed in relation to the total length.
# This ratio, for the treated animals, is compared with that observed in control animals receiving only the meal.
# In this test, the products of the invention were administered on the basis of 30 mg/kg and the results expressed as a percentage change relative to the controls, the ratio being positive when transit is accelerated and negative when it is slowed down; […]
# [3] = mouse, in vivo
# in vivo = settings: mouse, po
# [4] = Rattus norvegicus, po, 3 h; read-out: ED 50 at 3 h., antidiarrheal activity
SMILES,"ED50 [1, 4]","Activity with respect to intestinal transit, percentage change relative to the controls [2]",also measured
"CCC(CCC1(c2cc(OC)cc(OC)c2)OCCO1)(NC)c1ccccc1 (stereo not drawn) [Example 3.c, 2-(3-N-methylamino-3-phenyl-pentan-1-yl)-2-(3,5-dimethoxyphenyl)-1,3-dioxolane]",16 mg/kg,-3%,"effect on intestinal transit, in words [2]: zero"
"CCC(CCC1(c2cc(OC)c(OC)c(OC)c2)OCCO1)(NC)c1ccc(C(F)(F)F)cc1 (stereo not drawn) [Example 3.f, 2-[3-N-Methylamino-3-(4-trifluoromethylphenyl)-pentan-1-yl]-2-(3,4,5-trimethoxyphenyl)-1,3-dioxolane]",6 mg/kg,-17%,–
"CCC(CCC(=O)c1cc(OC)c(OC)c(OC)c1)(c1ccc(Cl)cc1)N(C)C (stereo not drawn) [Example 9.a, 4-(4-chlorophenyl)-4-N,N-dimethylamino-1-(3,4,5-trimethoxyphenyl)-hexan-1-one]",6 mg/kg,-15%,–
"CCC(CCC(=O)c1cc(OC)c(OC)c(OC)c1)(c1ccc(C)cc1)N(C)C (stereo not drawn) [Example 9.b.2, 4-N,N-dimethylamino-4-(4-methylphenyl)-1-(3,4,5-trimethoxyphenyl)-hexan-1-one]",2 mg/kg,-14%,–
"CCC(CCC(=O)c1cc(OC)c(OC)c(OC)c1)(c1ccc(C(F)(F)F)cc1)N(C)C (stereo not drawn) [Example 9.c, 4-N,N-dimethylamino-4-(4-trifluoromethvlphenvl)-1-(3,4,5-trimethoxyphenyl)-hexan-1-one]",15 mg/kg,+2%,"effect on intestinal transit, in words [2]: zero"
"CCC(CCC(=O)c1ccc(Cl)c(Cl)c1)(c1ccccc1)N(C)C (stereo not drawn) [Example 9.g, 1-(3,4-dichlorophenyl)-4-N,N-dimethylamino-4-phenyl-hexan-1-one]",3 mg/kg,-25%,–
"C=CCN(C)C(CC)(CCC(=O)c1ccccc1)c1ccccc1 (stereo not drawn) [Example 10, N-allyl-1,4-diphenyl-4-N-methylamino-hexan-1-one]",24.2 mg/kg,-6%,–
"CCC(CCC1(c2ccccc2)SCCS1)(c1ccccc1)N(C)C (stereo not drawn) [Example 12, 2-(3-N,N-dimethylamino-3-phenyl-pentan-1-yl)-2-phenyl-1,3-dithiolane]",23.1 mg/kg,-12%,–
"CN(C)C(=O)C(CCN1CCC(O)(c2ccc(Cl)cc2)CC1)(c1ccccc1)c1ccccc1 [Loperamide, 4-(4-chlorophenyl)-4-hydroxy-N,N-dimethyl-α,α-diphenyl-1-piperidinebutanamide, reference compound]",–,–,"ED50 ([1]; Rattus norvegicus, po, 3 h, read-out: ED 50 at 3 h., antidiarrheal activity): 0.2 mg/kg; ED50 ([2]; Rattus norvegicus, po, read-out: ED50 slowing down transit by 50%): 1.79 mg/kg; toxicity at the administration doses, in words [3]: too toxic; TD50 (in vivo): 75 mg/kg"
"CN1CC[C@]23c4c5ccc(O)c4O[C@H]2[C@@H](O)C=C[C@H]3[C@H]1C5 [Morphine, reference compound]",–,–,"ED 50 at 3 h., antidiarrheal activity ([1]; oral, one hour before 1.0 ml castor oil; inhibition of effect in 50% of animals at 3 h): 0.83 mg/kg; ED50 slowing down transit by 50% ([2]; oral, dose at which activity is -50%): 10 mg/kg"
